Calls of active or inactive are those of the source. The calls are words filed in the database; no cut-off is given here.
What was measured:
[1] = Toxicity in BALB/C nude mouse xenografted with human PA-1 cells assessed as pathological changes in heart at 75 to 150 mg/kg,po BID for 21 days by H&E staining based microscopic analysis; format: organism-based; conditions: in vivo, 504 h, dose 75-150 mg/kg, time 21 day
[2] = target: N-lysine methyltransferase KMT5A (Homo sapiens) (UniProt Q9NQR1); assay: Inhibition of SETD8 (unknown origin) at 1 to 10 uM by AlphaLlSA assay; conditions: dose 1-10 µM
[3] = Cmax in Sprague-Dawley rat at 100 mg/kg, po and measured upto 24 hrs by LC-MS/MS analysis; format: ADME, organism-based; set-up: dose 100 mg/kg, time < 24 hrs, route po; conditions: in vivo
[4] = Glutathione reactivity in pH 7.4 phosphate buffer assessed as GSH-adduct formation at 1 mM incubated for 2 to 12 hrs by HPLC-MS analysis; format: physicochemical; conditions: pH 7.4, 1000 µM, time 2-12 hrs
HEY = assay: Antiproliferative activity against human HEY cells assessed as inhibition of cell proliferation incubated for 72 hrs by MTT assay; format: functional, cell-based
A2780 = assay: Antiproliferative activity against human A2780 cells assessed as inhibition of cell proliferation incubated for 3 to 5 days by MTT assay; format: functional, cell-based; conditions: time 3-5 day, TDE = time-dependent effect
PA-1 [5] = assay: Induction of apoptosis in human PA-1 cells assessed as viable cells at 40 uM incubated for 48 hrs by AnnexinV-FITC/PI staining based flow cytometry analysis (Rvb= 88.53%); format: functional; conditions: read-out: Activity
NCI-H1703 = assay: Antiproliferative activity against human NCI-H1703 cells assessed as inhibition of cell proliferation incubated for 72 hrs by MTT assay; format: functional, cell-based; conditions: NCI-H1703, 72 h
PA-1 [6] = assay: Induction of apoptosis in human PA-1 cells assessed as viable cells at 10 uM incubated for 48 hrs by AnnexinV-FITC/PI staining based flow cytometry analysis (Rvb= 88.53%); format: functional; conditions: read-out: Activity
[7] = Toxicity in BALB/C nude mouse xenografted with human PA-1 cells assessed as pathological changes in kidney at 75 to 150 mg/kg,po BID for 21 days by H&E staining based microscopic analysis; format: organism-based; conditions: in vivo, 504 h, dose 75-150 mg/kg, time 21 day
[8] = Half life in Sprague-Dawley rat at 100 mg/kg, po and measured upto 24 hrs by LC-MS/MS analysis; format: ADME, organism-based; conditions: in vivo
[9] = target: Histone-lysine N-methyltransferase SUV39H1 (Homo sapiens) (UniProt O43463); assay: Inhibition of SUV39H1 (unknown origin) at 1 to 10 uM by AlphaLlSA assay; conditions: dose 1-10 µM
MCF7 = assay: Antiproliferative activity against human MCF7 cells assessed as inhibition of cell proliferation incubated for 72 hrs by MTT assay; format: functional, cell-based; conditions: MCF7, 72 h
[10] = tested on: Histone-lysine N-methyltransferase EZH2 (Homo sapiens), Q15910 [Y641F]; conditions: dose 10.0 nM
Description: Inhibition of EZH2 Y614F mutant (unknown origin) at 10 nM by AlphaLlSA assay

[11] = Toxicity in BALB/C nude mouse xenografted with human PA-1 cells assessed as pathological changes in spleen at 75 to 150 mg/kg,po BID for 21 days by H&E staining based microscopic analysis; format: organism-based; conditions: in vivo, 504 h, dose 75-150 mg/kg, time 21 day

Sequence of Histone-lysine N-methyltransferase EZH2 (Homo sapiens), Q15910 [Y641F] (Q15910 whole entry Y641F, looked up): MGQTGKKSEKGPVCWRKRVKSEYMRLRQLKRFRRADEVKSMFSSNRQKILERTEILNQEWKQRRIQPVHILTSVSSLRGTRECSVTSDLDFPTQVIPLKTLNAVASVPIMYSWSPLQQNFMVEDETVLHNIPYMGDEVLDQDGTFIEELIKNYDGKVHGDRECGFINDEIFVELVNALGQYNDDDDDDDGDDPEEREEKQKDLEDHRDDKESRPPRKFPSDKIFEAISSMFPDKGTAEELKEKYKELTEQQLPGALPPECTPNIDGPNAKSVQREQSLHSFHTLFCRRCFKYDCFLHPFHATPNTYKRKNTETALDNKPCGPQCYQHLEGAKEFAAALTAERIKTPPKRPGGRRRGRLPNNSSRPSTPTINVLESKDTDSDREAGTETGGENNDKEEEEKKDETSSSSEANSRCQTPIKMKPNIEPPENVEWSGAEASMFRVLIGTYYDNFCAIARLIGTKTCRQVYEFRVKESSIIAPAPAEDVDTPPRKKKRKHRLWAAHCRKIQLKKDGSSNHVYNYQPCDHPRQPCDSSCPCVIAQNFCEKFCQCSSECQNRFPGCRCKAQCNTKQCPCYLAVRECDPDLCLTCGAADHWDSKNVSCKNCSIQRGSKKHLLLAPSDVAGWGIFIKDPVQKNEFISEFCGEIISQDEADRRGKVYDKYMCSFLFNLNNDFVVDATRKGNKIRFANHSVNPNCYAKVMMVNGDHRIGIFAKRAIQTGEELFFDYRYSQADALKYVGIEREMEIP
Sequence of N-lysine methyltransferase KMT5A (Homo sapiens) (Q9NQR1 whole entry): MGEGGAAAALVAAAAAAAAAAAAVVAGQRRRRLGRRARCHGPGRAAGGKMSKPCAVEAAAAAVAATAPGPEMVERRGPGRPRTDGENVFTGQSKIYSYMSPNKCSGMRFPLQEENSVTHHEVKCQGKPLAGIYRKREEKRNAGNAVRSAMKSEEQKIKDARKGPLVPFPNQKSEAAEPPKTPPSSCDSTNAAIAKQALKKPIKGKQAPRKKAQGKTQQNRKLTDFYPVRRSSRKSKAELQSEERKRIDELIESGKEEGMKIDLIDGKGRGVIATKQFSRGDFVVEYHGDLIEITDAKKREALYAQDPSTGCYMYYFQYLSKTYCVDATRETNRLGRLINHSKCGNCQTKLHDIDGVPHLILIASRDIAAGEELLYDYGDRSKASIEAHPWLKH
Sequence of Histone-lysine N-methyltransferase SUV39H1 (Homo sapiens) (O43463 whole entry): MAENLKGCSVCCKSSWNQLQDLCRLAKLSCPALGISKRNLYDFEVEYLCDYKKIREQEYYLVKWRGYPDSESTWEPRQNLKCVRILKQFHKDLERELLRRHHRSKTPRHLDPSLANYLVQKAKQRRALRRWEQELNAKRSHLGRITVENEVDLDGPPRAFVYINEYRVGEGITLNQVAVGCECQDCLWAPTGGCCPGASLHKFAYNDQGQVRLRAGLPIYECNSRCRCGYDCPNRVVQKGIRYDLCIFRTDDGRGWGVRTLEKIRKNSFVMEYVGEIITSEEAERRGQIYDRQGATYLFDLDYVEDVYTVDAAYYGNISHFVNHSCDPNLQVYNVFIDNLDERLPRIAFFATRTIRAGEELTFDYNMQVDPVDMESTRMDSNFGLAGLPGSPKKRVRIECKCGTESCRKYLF

inhibition [2]: inactive | Cmax [3]: 6740 ng/mL | Activity [4]: Not Active | IC50 (NCI-H1703): 26.3 µM | half-life [8]: 46.2 min | inhibition [9]: inactive | IC50 (MCF7): 56.2 µM | inhibition [10]: Active
SMILES: C=CC(=O)Nc1ccc(C)c(-c2cc(C(=O)NCc3c(C)cc(C)[nH]c3=O)c(C)c(N(CC)C3CCOCC3)c2)c1
Activity [1]: Non-Toxic | IC50 (HEY): 35.5 µM | Activity (A2780): Tde | viability at 40 µM (PA-1 [5]): 10.3% | viability at 10 µM (PA-1 [6]): 70.5% | Activity [7]: Non-Toxic | Activity [11]: Non-Toxic

— ChEMBL document CHEMBL5316326, “Discovery of a Novel Covalent EZH2 Inhibitor Based on Tazemetostat Scaffold for the Treatment of Ovarian Cancer” (J Med Chem, 2023)
